Each structure is given as a SMILES string.

Assay [1] deals with His-CREBBP (1081-1197) bromodomain (Homo sapiens (Human), UniProt Q92793). The experiment in a line: AlphaScreen in-vitro binding assay for CREBBP. To be noted: biochemical. A digest of the protocol: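 Ni-chelate acceptor and streptavidin donor beads (45 µg/mL each, in 50 mM HEPES pH 7.5, 150 mM NaCl, 0.02% BSA) were then added for 60 min at room temperature. IC50 came from 8-point non-linear regression.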
(In general: Bead proximity is the source of the signal in Alpha formats.)

The target in the next assay is His-Brd4(44-477) (Homo sapiens (Human), UniProt O60885). The experiment in a line: TR-FRET in-vitro binding assay for BRD4. To be noted: biochemical. Put shortly: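 Eight-point dilution series tested against in-house His-BRD2(60-472), BRD3(20-477) or BRD4(44-477) (45 nM in dispensed solution) binding acetyl-histone H4 (AcK5,8,12,16; 60 nM in dispensed solution). Incubation 35 min at 30 °C, pH 7.5 HEPES buffer; detection by TR-FRET using Eu-anti-His6 and streptavidin-allophycocyanin.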

For a further assay, the system named is MV-4-11 cells. In words: Cell growth inhibition assay (CellTiter-Glo), MV-4-11. It is filed as cell-based. To be noted: Homo sapiens, MV4-11, read-out: MV-4-11 TGI. Put shortly:
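Dose-response over 3-fold dilutions from 10 μM; 0.1% DMSO control. Endpoint: CellTiter-Glo ATP signal, background-subtracted and day 0-corrected.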
In general terms: Cellular ATP, detected with luciferase, serves as a proxy for viable cell number.

His-CREBBP (1081-1197) bromodomain, sequence (Q92793 1081-1197): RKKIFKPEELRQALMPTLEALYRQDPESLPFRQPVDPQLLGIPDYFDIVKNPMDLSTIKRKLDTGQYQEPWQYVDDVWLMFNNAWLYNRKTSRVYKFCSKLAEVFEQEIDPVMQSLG

One may read the IC50 as the concentration at which inhibition is half-maximal. The low end stands for greater potency in that assay, the high end for weaker potency in that assay. Regarding `Cc1ncccc1-n1nc(C)c2c1C(=O)N(c1cc(C)c(=O)n(C)c1)C2c1ccc(Cl)cc1` (stereo not drawn) [Example 82, 4-(4-chlorophenyl)-5-(1,5-dimethyl-6-oxo-1,6-dihydropyridin-3-yl)-3-methyl-1-(2-methylpyridin-3-yl)-4,5-dihydropyrrolo[3,4-c]pyrazol-6(1H)-one], the IC50 was 6.5 µM in assay [1] and 0.068 µM at His-Brd4(44-477). Also, in the assay with MV-4-11 cells, the IC (total growth inhibition) turned out to be 0.139 µM.
Regarding `Cc1nn(-c2cncn2C)c2c1C(c1ccc(Cl)cc1)N(c1cc(C)c(=O)n(C)c1)C2=O` (stereo not drawn) [Example 83, 4-(4-chlorophenyl)-5-(1,5-dimethyl-6-oxo-1,6-dihydropyridin-3-yl)-3-methyl-1-(1-methyl-1H-imidazol-5-yl)-4,5-dihydropyrrolo[3,4-c]pyrazol-6(1H)-one], the IC50 in assay [1] is 6.1 µM; on His-Brd4(44-477) it was 0.091 µM. For the same molecule, in the assay with MV-4-11 cells, the IC (total growth inhibition) worked out at 0.145 µM.
In the case of `CCc1nn(C2CC2)c2c1C(c1ccc(Cl)cc1)N(c1cc(OC)c3nnc(C)n3c1)C2=O` (stereo not drawn) [Example 84, 4-(4-chlorophenyl)-1-cyclopropyl-3-ethyl-5-(8-methoxy-3-methyl-[1,2,4]triazolo[4,3-a]pyridin-6-yl)-4,5-dihydropyrrolo[3,4-c]pyrazol-6(1H)-one], the IC50 is greater than 37 µM in assay [1] and 0.028 µM at His-Brd4(44-477). Further, in the assay with MV-4-11 cells, the IC (total growth inhibition) is 0.098 µM.
`CCc1nn(CCOC)c2c1C(c1ccc(Cl)cc1)N(c1cc(C)c3nnc(C)n3c1)C2=O` (stereo not drawn) [Example 87, 4-(4-chlorophenyl)-5-(3,8-dimethyl-[1,2,4]triazolo[4,3-a]pyridin-6-yl)-3-ethyl-1-(2-methoxyethyl)-4,5-dihydropyrrolo[3,4-c]pyrazol-6(1H)-one]: the IC50 in assay [1] was 9.8 µM; at His-Brd4(44-477), 0.05 µM. In addition, the IC (total growth inhibition) with MV-4-11 cells was determined as 0.0288 µM.
Consider `CCc1nn(-c2ccnn2C)c2c1C(c1ccc(Cl)cc1)N(c1cc(C)c(=O)n(C)c1)C2=O` (stereo not drawn) [Example 89, 4-(4-chlorophenyl)-5-(1,5-dimethyl-6-oxo-1,6-dihydropyridin-3-yl)-3-ethyl-1-(1-methyl-1H-pyrazol-5-yl)-4,5-dihydropyrrolo[3,4-c]pyrazol-6(1H)-one], for which the values for the IC50 (in assay [1]; on His-Brd4(44-477)) were 2.5 µM and 0.047 µM, respectively. Further, in the assay on MV-4-11 cells, the IC (total growth inhibition) worked out at 0.0673 µM.
In the case of `Cc1nn(-c2ccnn2C)c2c1C(c1ccc(Cl)cc1)N(c1cc(C)c3nnc(C)n3c1)C2=O` (stereo not drawn) [Example 90, 4-(4-chlorophenyl)-5-(3,8-dimethyl-[1,2,4]triazolo[4,3-a]pyridin-6-yl)-3-methyl-1-(1-methyl-1H-pyrazol-5-yl)-4,5-dihydropyrrolo[3,4-c]pyrazol-6(1H)-one], the IC50 in assay [1] is greater than 37 µM; at His-Brd4(44-477) it was 0.015 µM. For the same molecule, the IC (total growth inhibition) with MV-4-11 cells came to 0.0436 µM.
In the case of `Cc1cc(N2C(=O)c3nn(C4CC4)c(C)c3C2c2ccc(Cl)cc2)cn2c(C)nnc12` (stereo not drawn) [Example 93, 4-(4-chlorophenyl)-2-cyclopropyl-5-(3,8-dimethyl-[1,2,4]triazolo[4,3-a]pyridin-6-yl)-3-methyl-4,5-dihydropyrrolo[3,4-c]pyrazol-6(2H)-one], the IC50 came to 3.1 µM in assay [1] and 0.027 µM on His-Brd4(44-477). For the same molecule, the IC (total growth inhibition) in the assay on MV-4-11 cells was found to be 0.0226 µM.
On the same counts, the results for `Cc1nn(C2CCC2)c2c1C(c1ccc(Cl)cc1)N(c1cc(C)c(=O)n(C)c1)C2=O` (stereo not drawn) [Example 94, 4-(4-chlorophenyl)-1-cyclobutyl-5-(1,5-dimethyl-6-oxo-1,6-dihydropyridin-3-yl)-3-methyl-4,5-dihydropyrrolo[3,4-c]pyrazol-6(1H)-one] are 0.65 µM, 0.024 µM and 0.0318 µM.
As to `Cc1nn(C2CC2)c2c1C(c1ccc(OC(F)(F)F)cc1)N(c1cc(C)c(=O)n(C)c1)C2=O` (stereo not drawn) [Example 95, 1-cyclopropyl-5-(1,5-dimethyl-6-oxo-1,6-dihydropyridin-3-yl)-3-methyl-4-(4-(trifluoromethoxy)phenyl)-4,5-dihydropyrrolo[3,4-c]pyrazol-6(1H)-one], the IC50 was found to be 7.7 µM in assay [1] and 0.064 µM at His-Brd4(44-477). The IC (total growth inhibition) with MV-4-11 cells stood at 0.27 µM.
As to `Cc1nn(C2CC2)c2c1C(c1cccc(C(F)(F)F)c1)N(c1cc(C)c(=O)n(C)c1)C2=O` (stereo not drawn) [Example 96, 1-cyclopropyl-5-(1,5-dimethyl-6-oxo-1,6-dihydropyridin-3-yl)-3-methyl-4-(3-(trifluoromethyl)phenyl)-4,5-dihydropyrrolo[3,4-c]pyrazol-6(1H)-one], the results for the IC50 (in assay [1]; at His-Brd4(44-477)) were 18 µM and 0.78 µM, respectively. Moreover, the IC (total growth inhibition) in the assay with MV-4-11 cells came out at 1.24 µM.
Consider `Cc1nn(C2CC2)c2c1C(c1ccc(C(F)(F)F)cc1)N(c1cc(C)c(=O)n(C)c1)C2=O` (stereo not drawn) [Example 97, 1-cyclopropyl-5-(1,5-dimethyl-6-oxo-1,6-dihydropyridin-3-yl)-3-methyl-4-(4-(trifluoromethyl)phenyl)-4,5-dihydropyrrolo[3,4-c]pyrazol-6(1H)-one], for which the IC50 came out at 3.6 µM in assay [1] and 0.089 µM at His-Brd4(44-477). Moreover, the IC (total growth inhibition) in the assay on MV-4-11 cells stood at 0.12 µM.
Take `COc1ncc(-n2nc(C)c3c2C(=O)N(c2cc(C)c(=O)n(C)c2)[C@H]3c2ccc(Cl)cc2)c(OC)n1` [Example 99, (S)-4-(4-chlorophenyl)-1-(2,4-dimethoxypyrimidin-5-yl)-5-(1,5-dimethyl-6-oxo-1,6-dihydropyridin-3-yl)-3-methyl-4,5-dihydropyrrolo[3,4-c]pyrazol-6(1H)-one]: the figures for the IC50 (in assay [1]; at His-Brd4(44-477)) were greater than 37 µM and 7.8 µM, respectively. Also, in the assay on MV-4-11 cells, the IC (total growth inhibition) worked out at 4.31 µM.
Regarding `COc1ncc(-n2nc(C)c3c2C(=O)N(c2cc(C)c(=O)n(C)c2)[C@@H]3c2ccc(Cl)cc2)c(OC)n1` [Example 100, (R)-4-(4-chlorophenyl)-1-(2,4-dimethoxypyrimidin-5-yl)-5-(1,5-dimethyl-6-oxo-1,6-dihydropyridin-3-yl)-3-methyl-4,5-dihydropyrrolo[3,4-c]pyrazol-6(1H)-one], the IC50 in assay [1] was 4.2 µM; on His-Brd4(44-477), 0.025 µM. In addition, the IC (total growth inhibition) in the assay on MV-4-11 cells is 0.0582 µM.
Turning to `COc1ncccc1-n1nc(C)c2c1C(=O)N(c1cc(C)c3nnc(C)n3c1)C2c1ccc(Cl)cc1` (stereo not drawn) [Example 101, 4-(4-chlorophenyl)-5-(3,8-dimethyl-[1,2,4]triazolo[4,3-a]pyridin-6-yl)-1-(2-methoxypyridin-3-yl)-3-methyl-4,5-dihydropyrrolo[3,4-c]pyrazol-6(1H)-one], the half-maximal inhibitory concentration (IC50) in assay [1] turned out to be 19 µM; at His-Brd4(44-477), 0.034 µM. Further, the IC (total growth inhibition) in the assay with MV-4-11 cells was 0.0447 µM.
Take `Cc1nn(C2CC2)c2c1C(c1ccc(Cl)cc1)N(c1ccc3nnn(C)c3n1)C2=O` (stereo not drawn) [Example 102, 4-(4-chlorophenyl)-1-cyclopropyl-3-methyl-5-(3-methyl-3H-[1,2,3]triazolo[4,5-b]-pyridin-5-yl)-4,5-dihydropyrrolo[3,4-c]pyrazol-6(1H)-one]: the IC50 in assay [1] is greater than 37 µM; on His-Brd4(44-477) it was 0.059 µM. Besides, the IC (total growth inhibition) in the assay with MV-4-11 cells is 0.141 µM.
Regarding `Cc1nn(C(C)C)c2c1[C@H](c1ccc(Cl)cc1)N(c1cc(C)c(=O)n(C)c1)C2=O` [Example 103, (S)-4-(4-chlorophenyl)-5-(1,5-dimethyl-6-oxo-1,6-dihydropyridin-3-yl)-1-isopropyl-3-methyl-4,5-dihydropyrrolo[3,4-c]pyrazol-6(1H)-one], the IC50 in assay [1] is greater than 37 µM; on His-Brd4(44-477), 11 µM. Besides, the IC (total growth inhibition) in the assay on MV-4-11 cells is 6.54 µM.
With `Cc1nn(C(C)C)c2c1[C@@H](c1ccc(Cl)cc1)N(c1cc(C)c(=O)n(C)c1)C2=O` [Example 104, (R)-4-(4-chlorophenyl)-5-(1,5-dimethyl-6-oxo-1,6-dihydropyridin-3-yl)-1-isopropyl-3-methyl-4,5-dihydropyrrolo[3,4-c]pyrazol-6(1H)-one], the IC50 in assay [1] came out at 1.2 µM; on His-Brd4(44-477), 0.013 µM. Also, the IC (total growth inhibition) with MV-4-11 cells stood at 0.0191 µM.
For `CCc1nn(C)c2c1C(c1ccc(Cl)cc1)N(c1cc(OC)c3nnc(C)n3c1)C2=O` (stereo not drawn) [Example 105, 4-(4-chlorophenol)-3-ethyl-5-(8-methoxy-3-methyl-[1,2,4]triazolo[4,3-a]pyridin-6-yl)-1-methyl-4,5-dihydropyrrolo[3,4-c]pyrazol-6(1H)-one], the IC50 in assay [1] is greater than 37 µM; on His-Brd4(44-477), 0.068 µM. In the assay with MV-4-11 cells, the IC (total growth inhibition) is 0.164 µM.
On the same counts, the results for `CCc1nn(C2CC2)c2c1[C@H](c1ccc(Cl)cc1)N(c1cc(C)c3nnc(C)n3c1)C2=O` [Example 106, (S)-4-(4-chlorophenyl)-1-cyclopropyl-5-(3,8-dimethyl-[1,2,4]triazolo[4,3-a]pyridin-6-yl)-3-ethyl-4,5-dihydropyrrolo[3,4-c]pyrazol-6(1H)-one] are greater than 37 µM, 2.2 µM and 1.48 µM.
On the same counts, the results for `CCc1nn(C2CC2)c2c1[C@@H](c1ccc(Cl)cc1)N(c1cc(C)c3nnc(C)n3c1)C2=O` [Example 107, (R)-4-(4-chlorophenyl)-1-cyclopropyl-5-(3,8-dimethyl-[1,2,4]triazolo[4,3-a]pyridin-6-yl)-3-ethyl-4,5-dihydropyrrolo[3,4-c]pyrazol-6(1H)-one] are 6.9 µM, less than 0.011 µM and 0.0113 µM.

For the origin of these results see patent US8975417B2, “Pyrazolopyrrolidine derivatives and their use in the treatment of disease” (Novartis AG, priority 2013, dated 2015).
